Results reported in publication PMC7551609 (Viruses, 2020).
“Also recorded” adds a separate entry of the source.

Tests used:
ZIKV Paraiba/2015 [1] = assay: Viral inhibition assay, pre-treatment (prophylactic), Vero cells; assay type: cell-based, Zika virus; conditions: for MIC / EC50: Zika virus; for MIC: read-out: Pre-treatment MIC (maximum effective concentration); for EC50: ZIKV Paraiba/2015, Vero cells, pre-treatment 12 h before infection
ZIKV MR-766 strain = assay: Viral inhibition assay, post-treatment, old World strain, Vero cells; assay type: cell-based, Zika virus; conditions: for inhibitor category based on SI-MTT and SI-XTT: ZIKV MR-766, Vero; for EC50 / MIC: Zika virus; for EC50: old World ZIKV MR-766, Vero cells, post-treatment; for MIC: old World ZIKV MR-766 strain, read-out: MR766 MIC (maximum effective concentration)
ZIKV Paraiba/2015 [2] = assay: Viral inhibition assay, post-treatment, human A549 cells; assay type: cell-based, Zika virus; conditions: for inhibitor category based on SI-MTT and SI-XTT: Paraiba/2015, A549 cells; for MIC / EC50: Zika virus; for MIC: in Homo sapiens, read-out: A549 cells MIC (maximum effective concentration); for EC50: ZIKV Paraiba/2015, A549 cells, post-treatment, 36 h
[3] = MTT cell viability assay in Vero cells; assay type: cell-based, African green monkey; conditions: African green monkey, non-infected Vero cells, 36 h post-treatment
ZIKV PRVABC59 strain = assay: Viral inhibition assay, post-treatment, new World strain, Vero cells; assay type: cell-based, Zika virus; conditions: for inhibitor category based on SI-MTT and SI-XTT: ZIKV PRVABC59, Vero; for EC50 / MIC: Zika virus; for EC50: new World ZIKV PRVABC59, Vero cells, post-treatment, 48 h; for MIC: new World ZIKV PRVABC59, read-out: PRVABC59 MIC (maximum effective concentration)
[4] = MTT cell viability in A549 cells; assay type: cell-based, human; conditions: human, highest concentration used 50.00 µM, sentence also cites [17]
ZIKV Paraiba/2015 [5] = assay: Viral inhibition assay, post-infection treatment, Vero cells; assay type: cell-based, Zika virus; conditions: for EC50: ZIKV Paraiba/2015, Vero cells, post-infection treatment, 36 h; for MIC: read-out: Post-treatment MIC (maximum effective concentration); for inhibitor category based on SI-MTT and SI-XTT / inhibitor category based on SI-MTT / inhibitor category based on SI-XTT: post-treatment, Paraiba/2015, Vero
[6] = XTT cell proliferation in A549 cells; assay type: cell-based, human; conditions: human, highest concentration used 50.00 µM, sentence also cites [17]
[7] = XTT cell proliferation assay in Vero cells; assay type: cell-based, African green monkey; conditions: African green monkey, non-infected Vero cells, 36 h post-treatment
ZIKV Paraiba/2015 [8] = assay: Viral inhibition assay, co-treatment, Vero cells; assay type: cell-based, Zika virus; conditions: for Co-treatment MIC (maximum effective concentration): Vero cells, ZIKV Paraiba/2015, co-treatment
ZIKV Paraiba/2015 [9] = assay: Growth kinetics inhibition assay (infectious viral progeny), Vero cells; assay type: cell-based, Zika virus
[10] = pre-treatment, Paraiba/2015, Vero
[11] = co-treatment, Paraiba/2015, Vero
[12] = 0.1, 1, 10 EC50, all time points (24, 48, 72 h post-treatment), MOI 0.1

| SMILES | MIC (ZIKV Paraiba/2015 [1]) [µM] | EC50 (ZIKV Paraiba/2015 [1]) [µM] | inhibitor category based on SI-MTT (ZIKV Paraiba/2015 [1]; [10]) | inhibitor category based on SI-XTT (ZIKV Paraiba/2015 [1]; [10]) | inhibitor category based on SI-MTT and SI-XTT (ZIKV MR-766 strain) | EC50 (ZIKV MR-766 strain) [µM] | MIC (ZIKV MR-766 strain) [µM] | inhibitor category based on SI-MTT and SI-XTT (ZIKV Paraiba/2015 [2]) | MIC (ZIKV Paraiba/2015 [2]) [µM] | EC50 (ZIKV Paraiba/2015 [2]) [µM] | CC50 at 36 h ([3]; confluent monolayers) [µM] | inhibitor category based on SI-MTT and SI-XTT (ZIKV PRVABC59 strain) | EC50 (ZIKV PRVABC59 strain) [µM] | MIC (ZIKV PRVABC59 strain) [µM] | CC50 [4] [µM] | EC50 (ZIKV Paraiba/2015 [5]; Zika virus, Vero) [µM] | MIC (ZIKV Paraiba/2015 [5]; Zika virus) [µM] | inhibitor category based on SI-MTT and SI-XTT (ZIKV Paraiba/2015 [5]) | CC50 [6] [µM] | Co-treatment MIC (maximum effective concentration) (ZIKV Paraiba/2015 [8]) [µM] | further results |
| --- | --- | --- | --- | --- | --- | --- | --- | --- | --- | --- | --- | --- | --- | --- | --- | --- | --- | --- | --- | --- | --- |
| CC[C@H](CC#N)OC(=O)N[C@@H](C)c1cccc(NC(=O)Nc2ccc(-c3cnco3)c(OC)c2)c1 [AVN-944] | < 100 | 11.1 | Potent | moderate | most potent; also recorded: potent | 0.33 | < 1.23 | Potent | < 0.41 | 0.05 | 273 | potent | 0.38 | < 1.23 | > 50 | 0.84 | < 11.1 | most potent; also recorded: potent | > 50 | > 100.00 | EC50 (ZIKV Paraiba/2015 [5]): 0.98 µM; CC50 at 36 h ([7]; confluent monolayers): > 1350 µM; inhibitor category based on SI-MTT and SI-XTT (ZIKV Paraiba/2015 [8]; [11]): moderate; effect on production of infectious viral progeny (viral titers) (ZIKV Paraiba/2015 [9]; [12]): dose-dependent inhibitory effect |
| CCCCCC[C@H]1C(=O)O[C@H](C)[C@H](NC(=O)c2cccc(NC=O)c2O)C(=O)O[C@@H](C)[C@@H]1OC(=O)CC(C)C [Antimycin A] | < 100 | 8.95 | moderate | moderate | most potent; also recorded: potent | 0.03 | < 33.3 | weak | < 11.1 | 1.71 |  | weak | 7.32 | < 33.3 | > 50 | 1.29 | < 100 | moderate to weak | > 50 | > 100.00 | CC50 at 36 h [3]: 51.3 µM; inhibitor category based on SI-MTT (ZIKV Paraiba/2015 [5]): weak; inhibitor category based on SI-XTT (ZIKV Paraiba/2015 [5]): potent; CC50 at 36 h [7]: > 1350 µM; inhibitor category based on SI-MTT (ZIKV Paraiba/2015 [8]; [11]): moderate; inhibitor category based on SI-XTT (ZIKV Paraiba/2015 [8]; [11]): potent; effect on production of infectious viral progeny (viral titers) (ZIKV Paraiba/2015 [9]; 72 h post-treatment): dose-dependent effect |
| NC(=O)c1[nH]nc([C@@H]2O[C@H](CO)[C@@H](O)[C@H]2O)c1O [Pyrazofurin] | > 100 | 313 |  | weakest | moderate | 0.89 | < 3.7 | moderate | < 1.23 | 0.33 | 271 | moderate | 0.95 | < 3.7 | > 50 | 5.16 | > 100 | moderate to weak | > 50 | > 100.00 | inhibitor category based on SI-MTT and SI-XTT (ZIKV Paraiba/2015 [1]; [10]): weak; EC50 (ZIKV Paraiba/2015 [5]): 5.96 µM; inhibitor category based on SI-MTT (ZIKV Paraiba/2015 [5]): moderate; inhibitor category based on SI-XTT (ZIKV Paraiba/2015 [5]): weak; CC50 at 36 h ([7]; confluent monolayers): > 1350 µM; inhibitor category based on SI-MTT (ZIKV Paraiba/2015 [8]; [11]): weak; inhibitor category based on SI-MTT and SI-XTT (ZIKV Paraiba/2015 [8]; [11]): weak; effect on production of infectious viral progeny (viral titers) (ZIKV Paraiba/2015 [9]; [12]): dose-dependent inhibitory effect |
